Test results taken from US20200390755A1, “COMPOUND FOR TREATING NERVOUS SYSTEM DISEASES AND USE THEREOF” (SHAANXI MICOT TECHNOLOGY CO., LTD., priority 2018, published 2020).

Tested on: WT mice
Experiment: High-altitude balance beam (11 mm) experiment 1, WT mice
Assay type: in vivo, mouse
Conditions: 5 mg/kg/d intragastric
Procedure: 7-week-old N171-82Q HD male mice were paired with female B6C3F1/J hybrid mice to obtain newborn mice. From 21 days of age, male mice were housed in separate cages. 0.5 cm of mouse tail tissue was removed to extract DNA to determine the genotype of the mouse, such that N171-82Q HD mice and WT mice needed for the experiment were obtained. The mice were randomly divided into WT Vehicle group (normal mice), WT test compound group (administration group of normal mice, 5 mg/kg/d, n=10), HD Vehicle group (blank group of HD mice, n=15), HD test compound group (administration groups 1-5 of HD mice, 5 mg/kg/d, n=10). The test compound was suspended in 1% CMC-Na solution and administered by intragastric administration until the end of the study. The weights of the mice were measured every week. Behavioral tests were performed at 12 weeks, 18 weeks, and 24 weeks of age to investigate motor function. At 20 weeks, 3 samples of tissue from each group were used for western blotting and immunohistochemistry. At 24 weeks, MRI scans were performed. At the end of the study, the effect of the test compound on the mortality of mice was evaluated. The software Sigmaplot 13.0 was used for statistical analysis of the data, and the data of each group was expressed as mean standard error (x±SEM). Behavioral test results were analyzed using two-way (genotype and processing factor) ANOVA and post-ho tests, the comparison and statistics of weight data were performed using two-way (genotype and age) ANOVA of repeated measures, and mortality was counted using Kaplan-Meier method. Other measurement data were analyzed by one-way ANOVA. P<0.05 was considered statistically significant. The motor function of mice was evaluated by the rotarod experiment and three types of balance beam experiments. […] If the time for crossing the beams was greater than 60 seconds, it was recorded as 60 seconds. a round balance beam with a length of 80 cm and a diameter of 11 mm was place at a height of about 50 cm from the ground. […]

O=c1cc(-c2ccc(N3CCCCC3)cc2)oc2c(O)c(O)ccc12 [Example 1, 7,8-dihydroxy-2-(4-(piperidin-1-yl)phenyl)-4H-chromen-4-one]
Time for crossing the beams, high-altitude balance beam (11 mm) (12 w): 8.18 ± 1.99 s
Time for crossing the beams, high-altitude balance beam (11 mm) (18 w): 7.55 ± 2.42 s
Time for crossing the beams, high-altitude balance beam (11 mm) (24 w): 8.18 ± 4.29 s
